# Source: ChEMBL document CHEMBL1201862, “PubChem BioAssay data set” (2004)
#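 Tested at 5 concentrations; 48 h exposure; 96-well plates; endpoints linearly interpolated, else capped at highest concentration. The concentration for 50% growth inhibition is given as GI50.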 Active and inactive are the calls of the source. Rule as the data show it: active = GI50 up to about 1.1 µM and inactive = higher.
# Tests used:
# Test in all cases: NCI tumour cell line growth inhibition, 48 h
# BT-549 = system: BT-549
# HOP-18 = system: HOP-18
# XF498 = system: XF498
# KM-20L2 = system: KM-20L2
# DMS-114 = system: DMS-114
# M19-MEL = system: M19-MEL
# LXFL 529 = system: LXFL 529
# DMS-273 = system: DMS-273
# RXF 631 = system: RXF 631
SMILES,GI50 (BT-549),GI50 (KM-20L2),GI50 (DMS-114),GI50 (M19-MEL),GI50 (LXFL 529),GI50 (DMS-273),further results
O=C(O)[C@H]1[C@@H](C2CCCCC2)O[C@@H](C2CCCCC2)O[C@H]1C(F)(F)F,33.2 µM (inactive),–,–,–,–,–,–
Cc1c(-c2ccccc2)oc(=O)c2ccccc12,13.7 µM (inactive),–,–,–,–,–,–
CN(/N=C/C=N/N(C)C1=NCCN1)C1=NCCN1,> 100 µM (inactive),–,–,–,–,–,–
C=C1C(=O)O[C@@H]2C[C@@H](C)[C@@H]3C=CC(=O)[C@@]3(C)[C@@H](OC(=O)CCCC(=O)O[C@H]3[C@@H]4C(=C)C(=O)O[C@@H]4C[C@@H](C)[C@@H]4C=CC(=O)[C@]43C)[C@H]12,0.0252 µM (active),–,–,–,–,–,–
CCOC(=O)C#Cc1cccc(C#CC(=O)OCC)c1,2.28 µM (inactive),–,–,–,–,–,–
C1OC1CN1CCN(CC2CO2)CC1 (stereo not drawn),–,> 100 µM (inactive),12.8 µM (inactive),> 100 µM (inactive),> 100 µM (inactive),16.1 µM (inactive),GI50 (HOP-18): 66.7 µM (inactive); GI50 (XF498): > 100 µM (inactive)
COC1=Nc2ccccc2S(=O)(=O)C=C1,6.75 µM (inactive),–,–,–,–,–,–
COc1ccc2c(c1)Cc1c-2[nH]c2cc3c(cc2c1=O)OCO3,–,14.7 µM (inactive),4.07 µM (inactive),15.7 µM (inactive),19.5 µM (inactive),7.67 µM (inactive),GI50 (HOP-18): 17.5 µM (inactive); GI50 (XF498): 15 µM (inactive)
Cc1ccc2c(=O)c(-c3n[nH]c(=S)s3)c[nH]c2n1,> 100 µM (inactive),–,–,–,–,–,–
CCOC(=O)C1N(S(=O)(=O)c2ccc(C)cc2)CCC12c1ccccc1NC2c1ccc(OC)c(OC)c1 (stereo not drawn),–,> 100 µM (inactive),> 100 µM (inactive),> 100 µM (inactive),> 100 µM (inactive),> 100 µM (inactive),GI50 (XF498): 79.8 µM (inactive)
COc1ccccc1C(=O)NO,> 100 µM (inactive),–,–,–,–,–,–
CCOC(=O)C(NC(=O)c1ccccc1)(Nc1ccc(S(=O)(=O)Nc2nc(C)cc(C)n2)cc1)C(F)(F)F (stereo not drawn),> 100 µM (inactive),–,–,–,–,–,–
NC(=O)NC(CC(=O)O)C(=O)O (stereo not drawn),> 100 µM (inactive),–,–,–,–,–,–
Fc1cccc2c1cc1ccc3cccc4ccc2c1c34,–,> 100 µM (inactive),–,> 100 µM (inactive),> 100 µM (inactive),> 100 µM (inactive),GI50 (HOP-18): > 100 µM (inactive); GI50 (XF498): > 100 µM (inactive)
CC(=O)C1=C(O)C2C3c4c[nH]c5cccc(c45)CC3C(C)(C)N2C1=O (stereo not drawn),–,31.6 µM (inactive),20.4 µM (inactive),> 100 µM (inactive),78.3 µM (inactive),27.5 µM (inactive),GI50 (HOP-18): 21.2 µM (inactive); GI50 (XF498): 51.4 µM (inactive)
C=C1C[C@@H]2O[C@H]3[C@H]4[C@@H](C[C@@H](C)[C@@H](OC(C)=O)[C@H]42)[C@@H](C)CO[C@@]3(C)[C@H](OC(C)=O)C[C@H]1O,63.4 µM (inactive),–,–,–,–,–,–
Cc1ccc(I)cc1N=C=S,13.3 µM (inactive),–,–,–,–,–,–
COc1cccc(-c2cc(O)c3cc(NC(C)=O)ccc3n2)c1,> 100 µM (inactive),–,–,–,–,–,–
Cc1ccccc1Cn1nc2ccccc2cc1=O,–,> 100 µM (inactive),> 100 µM (inactive),> 100 µM (inactive),–,> 100 µM (inactive),GI50 (HOP-18): > 100 µM (inactive); GI50 (XF498): > 100 µM (inactive)
C/C(=C1/CCCC2(N=NCC2c2ccccc2)C1=O)c1ccccc1 (stereo not drawn),–,25.6 µM (inactive),9.16 µM (inactive),22.3 µM (inactive),17.3 µM (inactive),15.9 µM (inactive),GI50 (HOP-18): 51.1 µM (inactive); GI50 (XF498): 17.4 µM (inactive)
O=C1C=C(N2CCN(CCOCCO)CC2)C(=O)c2c(O)ccc(O)c21,11.9 µM (inactive),–,–,–,–,–,–
O=C(NCCC1CNc2ccccc21)OCc1ccccc1 (stereo not drawn),> 100 µM (inactive),–,–,–,–,–,–
COC1=CC(=O)C2=C(C1=O)[C@H]1CC[C@]3(C)C(=O)CC[C@H]3[C@@H]1CC2,19.4 µM (inactive),–,–,–,–,–,–
Oc1ccc(Oc2cc3c(cc2Oc2ccc(O)cc2)-c2nc-3nc3[nH]c(nc4nc(nc5[nH]c(n2)c2cc(Oc6ccc(O)cc6)c(Oc6ccc(O)cc6)cc52)-c2cc(Oc5ccc(O)cc5)c(Oc5ccc(O)cc5)cc2-4)c2cc(Oc4ccc(O)cc4)c(Oc4ccc(O)cc4)cc32)cc1,> 100 µM (inactive),–,–,–,–,–,–
C#CCNC(=O)NCCCC(NC(C)=O)C(=O)NCc1ccccc1 (stereo not drawn),–,> 100 µM (inactive),> 100 µM (inactive),> 100 µM (inactive),> 100 µM (inactive),–,GI50 (HOP-18): > 100 µM (inactive); GI50 (RXF 631): > 100 µM (inactive)
COC(=O)c1ccc(/N=N/N(C)COc2ccc(C#N)cc2)cc1,> 100 µM (inactive),–,–,–,–,–,–
CCOC(=O)C(OCC1CC=CCC1)Sc1ccccc1 (stereo not drawn),–,> 100 µM (inactive),> 100 µM (inactive),> 100 µM (inactive),> 100 µM (inactive),> 100 µM (inactive),GI50 (HOP-18): > 100 µM (inactive)
COC1[C@H](NC(=O)OC(C)(C)C)C(=O)N1Cc1ccccc1 (stereo partly drawn),–,> 100 µM (inactive),> 100 µM (inactive),> 100 µM (inactive),> 100 µM (inactive),> 100 µM (inactive),GI50 (XF498): > 100 µM (inactive)
COC1CCC(OS(C)(=O)=O)C(C)O1 (stereo not drawn),> 10 µM (inactive),–,–,–,–,–,–
